Reference: PubChem BioAssay AID1259407 (Chemical Carcinogenesis Research Information System (CCRIS), 2018)
Active and inactive are the calls of the source. No rule for the calls is given here.

Test system: CCRIS mutagenicity, Ames/micronucleus/aberration tests
Assay: CCRIS mutagenicity studies
Details: Test System: AMES SALMONELLA TYPHIMURIUM, Method: PREINCUBATION
[1] = Strain/Indicator: TA98, Metabolic Activation: NONE
[2] = Strain/Indicator: TA100, Metabolic Activation: NONE

Question: Which mutagenic call (Strain/Indicator: TA97, Metabolic Activation: NONE) does the source give for `O=C(O)C(=O)C(=O)O` here?
Answer: The mutagenic call was “inactive; negative”.

Question: And the mutagenic call (Strain/Indicator: TA97, Metabolic Activation: RAT, LIVER, S-9, PHENOBARBITAL AND 5,6-BENZOFLAVONE)?
Answer: Its mutagenic call is “inactive; negative”.

Question: And the mutagenic call [1]?
Answer: Its mutagenic call is “inactive; negative”.

Question: What about the mutagenic call (Strain/Indicator: TA98, Metabolic Activation: RAT, LIVER, S-9, PHENOBARBITAL AND 5,6-BENZOFLAVONE) of the same molecule?
Answer: The mutagenic call was “inactive; negative”.

Question: And the mutagenic call [2]?
Answer: Its mutagenic call is “inactive; negative”.

Question: And the mutagenic call (Strain/Indicator: TA100, Metabolic Activation: RAT, LIVER, S-9, PHENOBARBITAL AND 5,6-BENZOFLAVONE)?
Answer: The mutagenic call was “inactive; negative”.

Question: What about the mutagenic call (Strain/Indicator: TA102, Metabolic Activation: NONE) of the same molecule?
Answer: The mutagenic call was “inactive; negative”.

Question: And the mutagenic call (Strain/Indicator: TA102, Metabolic Activation: RAT, LIVER, S-9, PHENOBARBITAL AND 5,6-BENZOFLAVONE)?
Answer: Its mutagenic call is “inactive; negative”.

Question: What about the mutagenic call (Strain/Indicator: TA104, Metabolic Activation: NONE) of the same molecule?
Answer: Its mutagenic call is “inactive; negative”.

Question: What about the mutagenic call (Strain/Indicator: TA104, Metabolic Activation: RAT, LIVER, S-9, PHENOBARBITAL AND 5,6-BENZOFLAVONE) of the same molecule?
Answer: Its mutagenic call is “inactive; negative”.

Question: Which results are given for `Cc1nc2ccc(N)c(C)c2nc1C`?
Answer: mutagenic call [1]: inactive; negative; mutagenic call (Strain/Indicator: TA98, Metabolic Activation: RAT, LIVER, S-9, PCB): active; positive; mutagenic call [2]: inactive; negative; mutagenic call (Strain/Indicator: TA100, Metabolic Activation: RAT, LIVER, S-9, PCB): active; positive
